Test results published in BindingDB's records for doi:10.1021/jm900078f (Metabasis Therapeutics, 2009).

Target: T1, Fructose-1,6-bisphosphatase 1 (Homo sapiens, UniProt P09467)
T1 sequence (P09467 whole entry): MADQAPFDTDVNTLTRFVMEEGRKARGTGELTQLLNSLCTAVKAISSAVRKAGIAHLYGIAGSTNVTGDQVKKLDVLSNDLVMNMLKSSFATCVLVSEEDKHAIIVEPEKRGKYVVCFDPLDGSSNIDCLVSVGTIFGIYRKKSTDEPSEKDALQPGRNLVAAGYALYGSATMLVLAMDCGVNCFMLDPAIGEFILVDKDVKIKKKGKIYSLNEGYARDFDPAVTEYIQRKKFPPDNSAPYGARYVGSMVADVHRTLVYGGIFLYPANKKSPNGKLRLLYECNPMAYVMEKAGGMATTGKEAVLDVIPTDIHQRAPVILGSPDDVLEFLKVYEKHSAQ
Experiment: Inhibition of human liver FBPase expressed in Escherichia coli by spectrophotometry

IC50: 1400 nM
Structure (SMILES): Nc1ncnc2c1nc(-c1ccc(P(=O)(O)O)o1)n2CCC1CCCCC1 [5-(6-amino-9-(2-cyclohexylethyl)-9H-purin-8-yl)furan-2-ylphosphonic acid]
